This note sets out measurements from patent US20200375963A1 (priority 2017, published 2020).

Holding throughout (assay type): cell-based, human
The subject of test [1] is monocyte-enriched PBMCs (MEPs). Nature of the test: Oxygen consumption in MEPs (MitoXpress-Xtra phosphorescent oxygen probe). The conditions noted are these: approximately 3 hours, n=3 donors. The protocol: We first measured oxygen consumption and L-lactate levels to confirm the effect of AtA5 and MXT on mitochondrial respiration in MEPs. We used a phosphorescent oxygen probe (MitoXpress-Xtra) which is quenched by oxygen. Cellular respiration in a closed system depletes oxygen and increases the fluorescence. […] Normoxic induction of RNA editing by MXT is also confirmed in a separate experiment from three additional donors (FIG. 11).
Oxygen consumption was measured using phosphorescent oxygen probe, MitoXpress-Xtra (Cayman Dual Assay Kit, item no. 601060). Monocytes were enriched to >50% purity by short-term cold aggregation and first cultured in standard conditions for 24 hours without treatment to stimulate metabolic activity. Cells were then centrifuged at 200×g for 7 minutes and resuspended in 1 ml RPMI/1% FBS with or without mitochondrial inhibitors. Cells are covered by mineral oil after addition of MitoXpress-Xtra following manufacturer's protocol. The fluorescence was kinetically measured on a plate reader (Synergy H1) at 20 sec intervals for approximately 3 hours (delay 70 μsec, collection time 30 μsec). Supernatants of the oxygen consumption assay were used to measure L-lactate levels following manufacturer's instructions.

The test system of test [2] is hypoxia-related gene expression in CD14+ monocytes. The test is described as follows: Gene expression in CD14+ monocytes (RNA seq, RT-qPCR).
In test [3] the test system is HIF-1α. Nature of the test: HIF-1α immunoblot of THP-1 cells. Particulars: THP-1, normoxia, 24 hours. The protocol: (§1) Leukoreduction filters (Terumo BCT, Lakewood, Colo.), waste products of platelet donation process, were used to isolate PBMCs by an IRB-approved protocol. PBMCs were isolated using Histopaque-1077 (Sigma). Monocyte-enriched PBMCs (MEPs) were prepared using cold-aggregation method with slight modifications (30,60) Monocytes were isolated from MEPs or PBMCs using EasySep Human CD14 Positive Selection Kit (STEMCELL Technologies). Flow cytometric verification of isolated CD14+ cells were performed using RPCI core facility services. The MEPs were cultured at an average density of 25-35×10^6/ml in 1 or 2 ml per well in 6- or 12-well standard tissue culture plates under standard conditions (37° C./5% CO2) in RPMI-1640 medium with 10% FBS, 100 U/ml penicillin and […] streptomycin (Mediatech). Isolated CD14+ and CD14− cells were cultured at approximately 5×10^6 cell/ml and 7×10^6 cells per ml densities, respectively. THP-1 and TLA-HEK293T cell lines were purchased from ATCC, and Open Biosystems®, respectively, and cultured in recommended conditions. THP-1 cells were cultured in 10^6 cells per 100 μl in 96-well culture plates in ATCC-formulated-1640 medium (30-2001), whereas 293T cells were cultured in DMEM medium supplemented with 10% FBS.
Cells were cultured under 1% or 6% O2, 5% CO2 and 94% N2 at 37° C. using Xvivo System (Biospherix). […]

The test system of test [4] is SDHB c.136C>U RNA editing in CD14+ monocytes. Nature of the test: SDHB c.136C>U RNA editing in CD14+ monocytes isolated after culture of MEPs. Particulars: CD14+ cells, AtA5/normoxia 2 days, n=3 donors; normoxic controls 5.4%±1.7%. From the text: We examined whether MTCII also regulates induction of gene expression in primary monocytes under hypoxia or when inactivated, as observed in SDH-mutated paragangliomas. To test the impact of MTCII inhibition on monocyte gene expression, we cultured MEPs (n=3 donors) in normoxia (1 day), hypoxia (1 day) and AtA5/normoxia (2 days), isolated CD14+ monocytes and performed RNA seq analysis. […] HIF1A but not EPAS1 (HIF2A) or HIF3A is expressed robustly (RPKM averages 21.5, 0.17 and 0.01, respectively) in monocytes. […]
(§2) RNA and plasmid DNA were isolated with commercial kits (TRIzol, Life Technologies and Qiagen, respectively). RNA/DNA was quantified by Nanodrop 2000 (Thermo Fisher). Proteins were quantified using Bio-Rad Dc assay with BSA standards. […] SDHB c.136C>U RNA editing was quantified by allele specific RT-qPCR PCR oligonucleotide primers (FIG. 13) were obtained from Integrated DNA Technologies, Inc. ADM, ELL2, HILPDA, NGLY1, MET, TKTL1, VEGFA and B2M gene expression levels was assessed by qPCR using FastStart Taq DNA polymerase and SYBR Green I dye on a LightCycler 480 System (Roche). Quantification cycle values were calculated by the instrument software using the maximum second derivative method and the mean quantification cycle value of duplicate PCR reactions was used for analysis. […]

Test [5] has as its system hypoxia-regulated genes (ELL2, VEGFA) in 293T cells. The test is described as follows: RT-qPCR of hypoxia-regulated genes in 293T cells. Particulars: normoxia and hypoxia (1% O2), 24 hours. The protocol: (§3) Leukoreduction filters (Terumo BCT, Lakewood, Colo.), waste products of platelet donation process, were used to isolate PBMCs by an IRB-approved protocol. PBMCs were isolated using Histopaque-1077 (Sigma). Monocyte-enriched PBMCs (MEPs) were prepared using cold-aggregation method with slight modifications (30,60) Monocytes were isolated from MEPs or PBMCs using EasySep Human CD14 Positive Selection Kit (STEMCELL Technologies). Flow cytometric verification of isolated CD14+ cells were performed using RPCI core facility services. […]
as §2

Test [6] relates to hypoxia-regulated genes (HILPDA, VEGFA) in THP-1 cells. The test is described as follows: RT-qPCR of hypoxia-regulated genes in THP-1 cells. Particulars: THP-1, normoxia or hypoxia (1%), 24 hours, HILPDA and VEGFA. How it is done: as §3, §2
The test system of test [7] is HIF-1α. The test is described as follows: HIF-1α immunoblot of CD14+ and CD14− primary cells. The conditions noted are these: monocytes isolated from PBMCs then cultured 24 hours. The protocol:
as §1
Cells were cultured under 1% or 6% O2, 5% CO2 and 94% N2 at 37° C. using Xvivo System (Biospherix). Human ‘universal’ type I IFN was obtained from PBL Assay Science and used at 600 U/ml. Atpenin A5 (Cayman chemical #11898), myxothiazol (Sigma-Aldrich, #T5580) and 2-Thenoyltrifluoroacetone (TTFA) (Sigma-Aldrich, #T27006) were used at 1-2 μM and 400 μM final concentrations, respectively. DFO (Sigma-Aldrich #D9533) and DMOG (Sigma-Aldrich #D3695) were used in 0.5 mM and 1.0 mM final concentrations, respectively.
2× Laemmeli buffer (BIO-RAD) was used to prepare whole cell lysates. The lysate resuspended in the Laemmeli buffer was heated at 95° C. for 15 minutes, and 40 μl of the sample was used to perform gel electrophoresis on pre-cast, 4%-15% gradient polyacrylamide gels (Mini-PROTEAN TGX, Bio-Rad) in Laemmeli buffer system. Mouse monoclonal anti-HIF1α (product number GTX628480, GT10211; 1:1000 dilution) and mouse monoclonal anti-β-actin (product number AM4302, AC-15; 1:15,000 dilution) was used to detect HIF-1α or actin, respectively followed by incubation with HRP-conjugated goat anti-mouse antibodies (Life Technologies) at 1:2000 dilution.

For the compound `COc1[nH]c(O)c(C(=O)[C@@H](C)C[C@H](C)[C@@H](Cl)CCl)c(=O)c1OC` [AtA5, 3-((2S,4S,5R)-5,6-dichloro-2,4-dimethylhexanoyl)-2-hydroxy-5,6-dimethoxypyridin-4(1H)-one], the oxygen consumption entry in test [1] is on record as “reduced but did not abolish it”. Further, the “expression of selected genes (ADM, ELL2, HILPDA, NGLY1, MET, TKTL1 and VEGFA), RT-qPCR” value in test [2] (CD14+ cells, AtA5/normoxia day 2) is reported as “induction of selected highly-expressed genes”. Besides, the “transcriptional upregulation of A3A” value in test [2] (CD14+ cells, AtA5/normoxia, RNA seq) is given as “without transcriptional upregulation of A3A”. Besides, the “RNA editing in genes other than SDHB” value in test [2] (CD14+ cells, RNA seq analysis) is on record as “induction of RNA editing in genes other than SDHB”. For the same compound, in test [2] (isolated CD14+ monocytes, normoxia, 1 day, n=3 donors), the “mRNA expression of VEGFA and HILPDA” value was “statistically significantly increased”. In addition, the “stabilization of HIF-1α” value in the test with HIF-1α [3] is reported as “antagonized weak normoxic stabilization of HIF-1α”. Moreover, in test [4], the “SDHB c.136C>U RNA editing (mean±SEM)” value is recorded as 32.1%±14.9%. The “expression of hypoxia-regulated genes” value in test [5] and in test [6] was “suppressed” in each case. The “HIF-1α stabilization (western blot)” value in the test on HIF-1α [7] (hypoxia (1% O2), three donors) is recorded as “appeared to enhance the stabilization of HIF-1α in hypoxic monocytes in two of three donors”; with HIF-1α [7] (normoxia), “did not robustly stabilize HIF-1α”.
